Test results from ChEMBL document CHEMBL1153168, “3D QSAR studies on 3,4-dihydroquinazolines as T-type calcium channel blocker by comparative molecular similarity indices analysis (CoMSIA)” (Bioorg Med Chem Lett, 2010).

Molecular target: Voltage-dependent T-type calcium channel subunit alpha-1G (Homo sapiens, UniProt O43497)
Assay: Inhibition of human T-type calcium channel alpha1G in HEK293 cells
Type: cell-based

Voltage-dependent T-type calcium channel subunit alpha-1G, sequence (O43497 whole entry): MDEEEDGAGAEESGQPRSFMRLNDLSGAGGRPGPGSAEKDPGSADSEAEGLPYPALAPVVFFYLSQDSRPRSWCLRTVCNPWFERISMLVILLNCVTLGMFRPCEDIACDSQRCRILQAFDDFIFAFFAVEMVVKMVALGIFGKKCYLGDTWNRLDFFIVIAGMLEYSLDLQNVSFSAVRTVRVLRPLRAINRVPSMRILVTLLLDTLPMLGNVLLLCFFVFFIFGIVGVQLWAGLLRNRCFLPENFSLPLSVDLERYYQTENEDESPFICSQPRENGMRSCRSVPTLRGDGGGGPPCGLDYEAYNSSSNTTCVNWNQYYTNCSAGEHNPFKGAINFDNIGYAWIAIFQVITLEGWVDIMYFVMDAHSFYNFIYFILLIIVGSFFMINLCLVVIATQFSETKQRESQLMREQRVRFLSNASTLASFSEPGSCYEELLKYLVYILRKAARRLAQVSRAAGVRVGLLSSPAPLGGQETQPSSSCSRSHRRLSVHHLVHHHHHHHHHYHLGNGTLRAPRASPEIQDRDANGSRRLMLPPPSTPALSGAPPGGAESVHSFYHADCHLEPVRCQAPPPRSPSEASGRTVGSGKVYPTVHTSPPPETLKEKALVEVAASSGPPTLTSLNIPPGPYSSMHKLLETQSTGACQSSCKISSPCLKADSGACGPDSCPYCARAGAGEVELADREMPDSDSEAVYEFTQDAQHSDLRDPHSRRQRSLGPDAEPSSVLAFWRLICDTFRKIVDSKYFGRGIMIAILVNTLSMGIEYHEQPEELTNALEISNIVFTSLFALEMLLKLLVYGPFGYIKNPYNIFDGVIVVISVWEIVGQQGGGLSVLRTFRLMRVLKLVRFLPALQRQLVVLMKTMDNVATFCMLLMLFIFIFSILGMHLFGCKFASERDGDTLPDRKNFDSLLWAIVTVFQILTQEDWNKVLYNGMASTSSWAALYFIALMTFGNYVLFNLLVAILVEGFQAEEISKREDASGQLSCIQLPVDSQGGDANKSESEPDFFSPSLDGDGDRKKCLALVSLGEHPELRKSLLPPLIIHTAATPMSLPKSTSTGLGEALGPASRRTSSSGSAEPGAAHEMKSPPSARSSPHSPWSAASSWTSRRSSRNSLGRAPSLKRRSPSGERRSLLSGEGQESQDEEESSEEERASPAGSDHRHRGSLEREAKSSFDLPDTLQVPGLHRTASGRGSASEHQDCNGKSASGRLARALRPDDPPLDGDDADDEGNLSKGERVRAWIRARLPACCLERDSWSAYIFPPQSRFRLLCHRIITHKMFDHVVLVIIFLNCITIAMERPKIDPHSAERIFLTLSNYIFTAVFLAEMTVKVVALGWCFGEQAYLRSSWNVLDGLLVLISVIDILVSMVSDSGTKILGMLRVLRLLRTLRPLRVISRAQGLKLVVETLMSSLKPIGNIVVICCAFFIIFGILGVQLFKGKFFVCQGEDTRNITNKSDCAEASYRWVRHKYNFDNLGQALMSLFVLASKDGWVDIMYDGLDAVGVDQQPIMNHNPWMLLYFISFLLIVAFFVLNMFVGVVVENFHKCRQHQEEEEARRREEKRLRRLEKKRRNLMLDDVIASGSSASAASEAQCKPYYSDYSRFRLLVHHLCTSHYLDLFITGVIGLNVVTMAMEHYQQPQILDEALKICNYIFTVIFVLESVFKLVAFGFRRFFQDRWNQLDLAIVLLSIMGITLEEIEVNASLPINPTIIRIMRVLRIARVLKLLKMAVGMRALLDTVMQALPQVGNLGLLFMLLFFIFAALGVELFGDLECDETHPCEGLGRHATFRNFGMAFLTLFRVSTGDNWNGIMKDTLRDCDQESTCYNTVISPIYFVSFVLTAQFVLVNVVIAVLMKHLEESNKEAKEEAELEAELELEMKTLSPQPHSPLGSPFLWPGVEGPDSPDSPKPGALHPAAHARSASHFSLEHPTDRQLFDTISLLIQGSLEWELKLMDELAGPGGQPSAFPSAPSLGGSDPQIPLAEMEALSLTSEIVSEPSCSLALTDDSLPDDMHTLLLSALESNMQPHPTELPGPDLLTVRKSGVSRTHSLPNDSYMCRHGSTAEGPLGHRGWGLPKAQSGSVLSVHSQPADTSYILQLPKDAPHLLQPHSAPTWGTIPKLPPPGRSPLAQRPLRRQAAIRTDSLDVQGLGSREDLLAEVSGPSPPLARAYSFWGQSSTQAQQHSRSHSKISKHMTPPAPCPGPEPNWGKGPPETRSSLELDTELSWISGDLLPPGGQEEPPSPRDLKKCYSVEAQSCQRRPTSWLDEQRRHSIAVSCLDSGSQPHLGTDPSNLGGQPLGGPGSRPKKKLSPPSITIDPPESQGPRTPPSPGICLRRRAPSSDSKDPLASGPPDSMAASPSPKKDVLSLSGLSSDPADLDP

Row | SMILES | IC50 [nM]
1 | Nc1ccc(CNC(=O)CC2c3ccccc3N=C(N3CCCCC3)N2c2ccccc2)cc1 (stereo not drawn) | 13000
2 | CCN1C(N(C)C)=Nc2ccccc2C1CC(=O)NCc1ccc(NS(=O)(=O)c2ccc(C)cc2)cc1 (stereo not drawn) | 1120
3 | CCN1C(N(C)C)=Nc2ccccc2C1CC(=O)NCc1ccc(NS(=O)(=O)c2ccc(F)cc2)cc1 (stereo not drawn) | 4100
4 | O=C(CC1c2ccccc2N=C(N2CCCCC2)N1c1ccccc1)NCc1ccc([N+](=O)[O-])cc1 (stereo not drawn) | 2340
5 | CCN1C(N2CCCCC2)=Nc2ccccc2C1CC(=O)NCc1ccccc1 (stereo not drawn) | 4580
6 | CCN1C(N(C)C)=Nc2ccccc2C1CC(=O)NCc1ccccc1 (stereo not drawn) | 24200
7 | COC(=O)CC1c2ccccc2N=C(Nc2ccccc2)N1CCCCCNC(=O)OC(C)(C)C (stereo not drawn) | 2270
8 | CCN1C(N2CCCCC2)=Nc2ccccc2C1CC(=O)NCc1ccc([N+](=O)[O-])cc1 (stereo not drawn) | 869
9 | COC(=O)CC1c2ccccc2N=C(Nc2ccccc2)N1CCCCCN (stereo not drawn) | 9160
10 | NCCCCCNC1=Nc2ccccc2C(CC(=O)NCc2ccccc2)N1c1ccccc1 (stereo not drawn) | 3130
11 | CCN1C(N(C)C)=Nc2ccccc2C1CC(=O)NCc1ccc([N+](=O)[O-])cc1 (stereo not drawn) | 2170
12 | CC(C)(C)OC(=O)NCCCCCN1C(Nc2ccccc2)=Nc2ccccc2C1CC(=O)NCc1ccccc1 (stereo not drawn) | 1200
13 | COC(=O)CC1c2ccccc2N=C(NCCCCCN)N1c1ccccc1 (stereo not drawn) | 1840
14 | COC(=O)CC1c2ccccc2N=C(NCCCCCNC(=O)OC(C)(C)C)N1c1ccccc1 (stereo not drawn) | 2020
15 | CN(C)C1=Nc2ccccc2C(CC(=O)NCc2ccc(NS(=O)(=O)c3ccc(F)cc3)cc2)N1c1ccccc1 (stereo not drawn) | 430
16 | O=C(CC1c2ccccc2N=C(N2CCCCC2)N1c1ccccc1)NS(=O)(=O)c1cccs1 (stereo not drawn) | 1010
17 | CCN1C(N(C)C)=Nc2cc(N)ccc2C1CC(=O)NCc1ccc(N)cc1 (stereo not drawn) | 12700
18 | NCCCCCN1C(Nc2ccccc2)=Nc2ccccc2C1CC(=O)NCc1ccccc1 (stereo not drawn) | 4540
